Source: US20180282331A1, “7-Oxo -6-(sulfooxy)- 1,6-diazabicyclo [3.2.1] octane containing compounds and their use in treatment of bacterial infections (changed by PCT to: 7-OXO -6-(SULFOOXY)- 1,6-DIAZABICYCLO [3.2.1] OCTANE CONTAINING COMPOUNDS AND THEIR USE IN TREATMENT OF BACTERIAL INFECTIONS” (WOCKHARDT LIMITED, priority 2015, published 2018)
Where two headings read alike, the source gives them in different places.

Assays:
Experiment in all cases: MIC, agar dilution (MHA), compound alone
Format in all cases: cell-based
E. coli 7 MP = test system: E. coli 7 MP
Experimental: (§1) The biological activity of representative compounds according to the invention against various bacterial strains was investigated. The Minimum Inhibitory Concentration (MIC) determination for the combinations was carried out in Muller Hinton Agar (MHA) (BD, USA) according to Clinical and Laboratory Standards Institute (CLSI) recommendations, (Clinical and Laboratory Standards Institute (CLSI), Performance Standards for Antimicrobial Susceptibility Testing, 20th Informational Supplement, M 100-S20, Volume 30, No. 1, 2010). In short, the test strains were adjusted to deliver about 10^4 CFU per spot with a multipoint inoculator (Applied Quality Services, UK). The plates were poured with MHA containing doubling concentration range of representative compounds according to present invention. The plates were inoculated and were incubated at 35° C. for 18 hours. […] The Table 5 depicts the antibacterial activity profile of compounds according to present invention against various multidrug resistant bacterial strains.

E. coli M 50 = test system: E. coli M 50
Experimental: as §1

E. coli NCTC 13352 = test system: E. coli NCTC 13352
Experimental: as §1

E. coli NCTC 13353 = test system: E. coli NCTC 13353
Experimental: as §1

[1] = test system: K. pneumoniae ATCC 700603
Experimental: as §1

K. pneumoniae H521 = test system: K. pneumoniae H521
Experimental: as §1

K. pneumoniae H525 = test system: K. pneumoniae H525
Experimental: as §1

[2] = Escherichia coli, E. coli 7 MP, compound alone, MHA, 35° C., 18 hours, read-out: MIC
[3] = Escherichia coli, M50, E. coli M 50, compound alone, MHA, 35° C., 18 hours, read-out: MIC
[4] = Escherichia coli, NCTC13352, E. coli NCTC 13352, compound alone, MHA, 35° C., 18 hours, read-out: MIC
[5] = Escherichia coli, NCTC13353, E. coli NCTC 13353, compound alone, MHA, 35° C., 18 hours, read-out: MIC
[6] = Klebsiella pneumoniae, ATCC700603, K. pneumoniae ATCC 700603, compound alone, MHA, 35° C., 18 hours, read-out: MIC
[7] = Klebsiella pneumoniae, K. pneumoniae H521, compound alone, MHA, 35° C., 18 hours, read-out: MIC
[8] = Klebsiella pneumoniae, K. pneumoniae H525, compound alone, MHA, 35° C., 18 hours, read-out: MIC

MIC (E. coli 7 MP; [2]) [µg/mL]	MIC (E. coli M 50; [3]) [µg/mL]	MIC (E. coli NCTC 13352; [4]) [µg/mL]	MIC (E. coli NCTC 13353; [5]) [µg/mL]	MIC [1, 6] [µg/mL]	MIC (K. pneumoniae H521; [7]) [µg/mL]	MIC (K. pneumoniae H525; [8]) [µg/mL]	SMILES	other results
4	1	1	1	> 32	2	1	O=C(Cn1ccnc1COC(=O)[C@@H]1CCCN1)NNC(=O)[C@@H]1CC[C@@H]2CN1C(=O)N2OS(=O)(=O)O [Example 34]	
4	1	1	1	> 32	2	2	C[C@H](N)C(=O)OCc1nccn1CC(=O)NNC(=O)[C@@H]1CC[C@@H]2CN1C(=O)N2OS(=O)(=O)O [Example 35]	
							Nc1ccn(CC(=O)NNC(=O)[C@@H]2CC[C@@H]3CN2C(=O)N3OS(=O)(=O)[O-])c(=O)n1.[Na+] [Example 37]	MIC (E. coli 7 MP; Escherichia coli, 7MP, 18 h): 4 µg/mL; MIC (E. coli M 50; Escherichia coli, M50, 18 h): 1 µg/mL; MIC (E. coli NCTC 13352; Escherichia coli, NCTC13352, 18 h): 2 µg/mL; MIC (E. coli NCTC 13353; Escherichia coli, NCTC13353, 18 h): 1 µg/mL; MIC ([1]; Klebsiella pneumoniae, ATCC700603, 18 h): > 32 µg/mL; MIC (K. pneumoniae H521; Klebsiella pneumoniae, H521, 18 h): 4 µg/mL; MIC (K. pneumoniae H525; Klebsiella pneumoniae, H525, 18 h): 4 µg/mL
							O=C(Cn1nnnc1CCO)NNC(=O)[C@@H]1CC[C@@H]2CN1C(=O)N2OS(=O)(=O)O.[Na] [Example 38, Sodium salt of (2S,5R)-N′-{[5-(2-hydroxyethyl)-1H-tetrazol-1-yl]acetyl}-7-oxo-6-(sulfooxy)-1,6-diazabicyclo[3.2.1]octane-2-carbohydrazide]	MIC (E. coli 7 MP; E. coli 7 MP, compound alone, MHA, 35° C., 18 hours): 1 µg/mL; MIC (E. coli M 50; E. coli M 50, compound alone, MHA, 35° C., 18 hours): 0.25 µg/mL; MIC (E. coli NCTC 13352; E. coli NCTC 13352, compound alone, MHA, 35° C., 18 hours): 0.25 µg/mL; MIC (E. coli NCTC 13353; E. coli NCTC 13353, compound alone, MHA, 35° C., 18 hours): 0.25 µg/mL; MIC ([1]; K. pneumoniae ATCC 700603, compound alone, MHA, 35° C., 18 hours): >32 µg/mL; MIC (K. pneumoniae H521; K. pneumoniae H521, compound alone, MHA, 35° C., 18 hours): 0.5 µg/mL; MIC (K. pneumoniae H525; K. pneumoniae H525, compound alone, MHA, 35° C., 18 hours): 0.5 µg/mL
1	0.5	0.5	0.5	> 32	1	2	O=C(Cn1nnc(CCO)n1)NNC(=O)[C@@H]1CC[C@@H]2CN1C(=O)N2OS(=O)(=O)[O-].[Na+] [Example 39]	
4	2	2	1	> 32	4	2	O=C(Cn1ccnc1CCO)NNC(=O)[C@@H]1CC[C@@H]2CN1C(=O)N2OS(=O)(=O)[O-].[Na+] [Example 40]	
2	0.5	1	0.5	> 32	2	1	O=C(Cn1ccnc1CO)NNC(=O)[C@@H]1CC[C@@H]2CN1C(=O)N2OS(=O)(=O)[O-].[Na+] [Example 42]	
> 32	> 32	> 32	> 32	> 32	> 32	> 32	NCc1nnn(CCONC(=O)[C@@H]2CC[C@@H]3CN2C(=O)N3OS(=O)(=O)O)n1 [Example 44, (2S,5R)-N-{2-[5-(aminomethyl)-2H-tetrazol-2-yl]ethoxy}-7-oxo-6-(sulfooxy)-1,6-diazabicyclo[3.2.1]octane-2-carboxamide]	
32	4	8	4	> 32	4	4	NCCc1nnn(CCONC(=O)[C@@H]2CC[C@@H]3CN2C(=O)N3OS(=O)(=O)O)n1 [Example 46]	
32	8	8	8	> 32	> 32	> 32	O=C(NOCCn1ccnn1)[C@@H]1CC[C@@H]2CN1C(=O)N2OS(=O)(=O)O [Example 47]	
> 32	8	16	8	> 32	> 32	32	O=C(NOCCn1cncn1)[C@@H]1CC[C@@H]2CN1C(=O)N2OS(=O)(=O)O [Example 48]	
> 32	> 32	> 32	> 32	> 32	> 32	> 32	CCOC(=O)c1nnnn1CCONC(=O)[C@@H]1CC[C@@H]2CN1C(=O)N2OS(=O)(=O)[O-].[Na+] [Example 49]	
